# Assay results from paper PMC7804430, “Synthesis and tumour cell uptake studies of gadolinium(III)–phosphonium complexes” (Scientific Reports, 2021).
# How the values were obtained:
# [1] = Competition (challenge) stability assay with xylenol orange at acidic pH; format: physicochemical; conditions: absorbance shift 433 to 573 nm
# Procedure: In this work, the relative stability of complexes 6 and 7 were compared to the previously-reported archetypal Gd(III)-DO3A triphenylphosphonium complex (11, shown in Fig. 2) at acidic pH by means of a competition (challenge) assay using the lanthanoid(III) ion indicator xylenol orange[32]. These assays were performed under mildly acidic conditions to ensure the phenolic hydroxyl was protonated prior to chelation.
# Solution stability assays were performed using the method described by Barge et al.[32]. Initially an acetate buffer solution (50 mM) was prepared, a portion of which was adjusted to pH 5.8 using NaOH, while other portions were adjusted to pH 5.0, 4.0, or 3.0 using glacial acetic acid. Xylenol orange (5.81 mg) was dissolved in the pH 5.8 acetate buffer (48.4 mL) to give a 10 × concentrated stock solution. These solutions were treated as light sensitive, work was conducted in minimal light and solutions were covered in foil.
# 25 mM stock solutions of each GdCl3, […] 11 were prepared in the various buffer solutions. […] The plates were agitated in a plate reader and allowed to equilibrate for 24 h. […] The plates were again agitated in a plate reader and allowed to equilibrate for 15 min at RT. The absorbance values were then determined at both 573 nm and 433 nm by means of a BMG LABTECH POLARstar Omega, UV Spectrometer, and the data plotted and processed using Graphpad Prism 7.
# [2] = literature values for HPLC calibration curve; cited from earlier work
# HF1 tumour cell line = tested on: HF1 tumour cell line; set-up: method as in PMID 19825958, PMID 15388578; conditions: cited from earlier work
molecule,measurement,setting,value
[Cl][Gd]([Cl])[Cl] [GdCl3],% Gd^3+ retention,"[1]; pH 5.0, 24 h",0%
same,% Gd^3+ retention,"[1]; pH 5.8, 24 h",0%
Nc1ccccc1 [aniline],logD7.4 of calibration standards,[2],0.90
c1ccc(N(c2ccccc2)c2ccccc2)cc1 [triphenylamine],logD7.4 of calibration standards,[2],5.74
Motexafin-Gd [MGd],IC50,"HF1 tumour cell line; HF1 tumour cell line, read-out: Concentration resulting in 50% cell arrest",< 100 µM
same,Concentration exhibiting significant cytotoxicity,HF1 tumour cell line; in the absence of any X-ray irradiation,ca. 50 μM
